# Experimental data published in patent US11401278B2, “Macrocyclic indole derivatives” (The Broad Institute, Inc., priority 2017, dated 2022).
# Where a name gives a salt, the structure may show the parent alone. Read-outs that look alike come from different tables or passages of the source.
# Columns and labels:
# SUDHL10 [1] = assay: Antiproliferation assay (Assay 7), SUDHL10; format: cell-based; conditions: CellTiter-Glo, median, read-out: Antiproli SUDHL10 [M] (median) IC50
# Description: (§1) Assessment of the Anti-Proliferative Effect of Compounds in Different Cell Lines
# (§2) The impact of compounds on the proliferation of different cell lines was assessed using the CellTiter-Glo® Luminescent Cell Viability reagent from Promega (G7573).
# (§3) In parallel, cells were plated in a reference (day 0) plate for time zero determination.
# (§4) Rim wells were excluded. The cells were incubated for 72 hours in a humidified incubator at 37° C. The day 0 plate was measured by adding 30 μL/well of CTG solution (CellTiter-Glo® Luminescent Cell Viability reagent, Promega G7573) to time zero wells in the reference plate followed by a 10 minutes incubation and luminescence reading at 0.1 ms. using the PHERAstar FS microplate reader (BMG Labtech).
# (§5) After 72 hours incubation, the treated plates were measured in the same way as the day 0 plate mentioned above.
# [2] = from CCOC(=O)c1[nH]c2c(-c3c(CN(CCCN4CCOCC4)S(=O)(=O)CCCCl)nn(C)c3CC)cccc2c1CCCOc1cccc2ccccc12; amine bond; NaH; DMF; 25.0 mM; 60.0 °C; 6.0 h; 2 steps
# PA-1 = assay: Antiproliferation assay (Assay 7), PA-1; format: cell-based; conditions: Homo sapiens, CellTiter-Glo, 72 hours, median, read-out: Antiproli PA-1 [M] median IC50
# Description: as §1, §2, §3, §4, §5
# DM-S114 = assay: Antiproliferation assay (Assay 7), DM-S114; format: cell-based; conditions: Homo sapiens, DMS-114, CellTiter-Glo, 72 hours, median, read-out: Antiproli DM-S114 [M] median IC50
# Description: as §1, §2, §3, §4, §5
# SK-MEL-2 = assay: Antiproliferation assay (Assay 7), SK-MEL-2; format: cell-based; conditions: Homo sapiens, CellTiter-Glo, 72 hours, median, read-out: Antiproli SK-MEL-2 [M] median IC50
# Description: as §1, §2, §3, §4, §5
# A-431 = assay: Antiproliferation assay (Assay 7), A-431; format: cell-based; conditions: Homo sapiens, CellTiter-Glo, 72 hours, median, read-out: Antiproli A-431 [M] median IC50
# Description: as §1, §2, §3, §4, §5
# SNU-16 = assay: Antiproliferation assay (Assay 7), SNU-16; format: cell-based; conditions: Homo sapiens, CellTiter-Glo, 72 hours, median, read-out: Antiproli SNU-16 [M] median IC50
# Description: as §1, §2, §3, §4, §5
# SUDHL10 [3] = tested on: SUDHL10
# Description: Assay 6 Induction of Cytotoxicity Upon Treatment of Cells with Selected Compounds
# Therefore, cytotoxicity assays were run in parallel in SUDHL5 and SUDHL10 cells.
# The different cell lines were plated in culture medium (RPMI 1640 [GIBCO #22400-089] supplemented with 10% Fetal Bovine Serum) at a density of 3,300 cells in 30 μl/well in a sterile, solid black, flat bottom, polystyrene, TC-treated 384-well microplate (Corning #3571) using Multidrop Combi Reagent Dispenser. As a control, medium without cells was also added to the plate. Cells were incubated in a humidified incubator at 37° C. overnight. On the next day, the cells were treated with compounds (stock solution, 10 mM in DMSO) using the HP D300 Digital Dispenser in a concentration range of 3.3×10e-5 M (33 μM) to 5×10e-9 M (5 nM) in a single-dot curve with at least 16 dilutions and a DMSO concentration of 0.33%. Rim wells were excluded. The cells were incubated for 5 hours in a humidified incubator at 37° C. After this incubation, 30 μl of CellTiter-Glo® Luminescent Cell Viability reagent (Promega, G7573) was added to each well using the Multidrop Combi Reagent Dispenser, followed by 15 minutes incubation on a shaker at room temperature. Finally, luminescence was read at 0.1 ms, with a gain of 3000 using the PHERAstar FS microplate reader (BMG Labtech).
IC50 (SK-MEL-2),IC50 (A-431),IC50 (SNU-16),SMILES,IC50 (PA-1),further results
–,–,–,"Cc1c2c(nn1C)CN(C)S(=O)(=O)CCCn1c(C(=O)O)c(CCCOc3cccc4ccccc34)c3ccc(Cl)c-2c31 (racemic) [Example 4, (rac)-4-Chloro-2,3,14-trimethyl-7-{3-[(naphthalen-1-yl)oxy]propyl}-13,13-dioxo-10,11,12,13,14,15-hexahydro-2H-13λ^6-pyrazolo[3′,4′:4,5][1,2,8]thiadiazacycloundecino-[6,7,8-hi]indole-8-carboxylic acid]",–,"IC50 (SUDHL10 [1]; Homo sapiens, SU-DHL10, 72 h): 5.6e-07 M"
–,–,–,"CCc1c2c(nn1C)CN(CCCN1CCOCC1)S(=O)(=O)CCCn1c(C(=O)O)c(CCCOc3cccc4ccccc34)c3cccc-2c31 (racemic) [Example 15, (rac)-12-Ethyl-11-methyl-8-(3-morpholinopropyl)-1-(3-(naphthalen-1-yloxy)propyl)-4,5,6,8,9,11-hexahydropyrazolo[3′,4′:4,5][1,2,8]thiadiazacycloundecino[6,7,8-hi]indole-2-carboxylic acid 7,7-dioxide 2,2,2-trifluoroacetic acid salt]",–,"ring closure, yield of all isomers [2]: 48.2%"
1.14e-06 M,1.18e-06 M,1.05e-06 M,"CCc1c2c(nn1C)CN(CC)S(=O)(=O)CCCn1c(C(=O)O)c(CCCOc3cccc4cc(F)ccc34)c3ccc(Cl)c-2c31 (racemic) [Example 56, (rac)-4-chloro-3,14-diethyl-7-{3-[(6-fluoro-1-naphthyl)oxy]propyl}-2-methyl-11,12,14,15-tetrahydro-2H,10H-pyrazolo[3′,4′:4,5][1,2,8]thiadiazacycloundecino[6,7,8-hi]indole-8-carboxylic acid 13,13-dioxide]",7.07e-07 M,IC50 (DM-S114): 5.61e-07 M
5.08e-06 M,2.07e-06 M,2.54e-06 M,"CCc1c2c(nn1C)C(CCC1CCOCC1)N(C)S(=O)(=O)CCCn1c(C(=O)O)c(CCCOc3cccc4cc(F)ccc34)c3ccc(Cl)c-2c31 (racemic) [Example 60, (rac)-4-chloro-3-ethyl-7-{3-[(6-fluoro-1-naphthyl)oxy]propyl}-2,14-dimethyl-15-[2-(tetrahydro-2H-pyran-4-yl)ethyl]-11,12,14,15-tetrahydro-2H,10H-pyrazolo[3′,4′:4,5][1,2,8]thiadiazacycloundecino[6,7,8-hi]indole-8-carboxylic acid 13,13-dioxide (Racemate 1)]",1.84e-06 M,–
–,–,–,"CCc1c2c(nn1C)C(CCN1CCOCC1)N(C)S(=O)(=O)CCCn1c(C(=O)O)c(CCCOc3cccc4cc(F)ccc34)c3ccc(Cl)c-2c31 (racemic) [Example 73, (rac)-(4-chloro-3-ethyl-7-{3-[(6-fluoronaphthalen-1-yl)oxy]propyl}-2,14-dimethyl-15-[2-(morpholin-4-yl)ethyl]-13,13-dioxo-10,11,12,13,14,15-hexahydro-2H-13lambda^6-pyrazolo[3′,4′:4,5][1,2,8]thiadiazacycloundecino[6,7,8-hi]indole-8-carboxylic acid (Racemate 1)]",–,IC50 (SUDHL10 [3]): 19 nM; IC50 (SUDHL5): 20 nM
–,–,–,"Cc1c2c(nn1C)CN(C)S(=O)(=O)CCCn1c(C(=O)O)c(CCCOc3cccc4ccccc34)c3ccc(Cl)c-2c31 (single isomer, unassigned; enantiomer 1) [Example 5, 4-Chloro-2,3,14-trimethyl-7-{3-[(naphthalen-1-yl)oxy]propyl}-13,13-dioxo-10,11,12,13,14,15-hexahydro-2H-13λ^6-pyrazolo[3′,4′:4,5][1,2,8]thiadiazacycloundecino[6,7,8-hi]indole-8-carboxylic acid-N-ethylethanamine salt (Enantiomer 1)]",–,IC50 (SUDHL10 [1]; 72 hours): 4.4e-07 M
